Data on 21 molecules can be found in ChEMBL document CHEMBL1129525 (J Med Chem, 1996).

The subject of test [1] is Toxoplasma gondii. Kind of test: Inhibitory activity against Toxoplasma gondii cell growth(ca denotes calculated value). The format is functional, organism-based.
The subject of test [2] is Toxoplasma gondii. Kind of test: Inhibition of Toxoplasma gondii cell growth. Format: functional, organism-based.
Test [3] has as its target T1, Dihydrofolate reductase (Pneumocystis carinii, UniProt P16184).
T1 sequence (P16184 whole entry): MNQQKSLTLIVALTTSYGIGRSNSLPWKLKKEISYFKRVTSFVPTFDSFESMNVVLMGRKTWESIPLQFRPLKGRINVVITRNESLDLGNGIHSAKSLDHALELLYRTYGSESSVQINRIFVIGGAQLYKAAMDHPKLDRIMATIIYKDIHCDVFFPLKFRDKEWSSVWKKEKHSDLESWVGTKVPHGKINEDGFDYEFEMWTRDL
Description: Inhibitory activity against Pneumocystis carinii dihydrofolate reductase

The target of test [4] is T2, Dihydrofolate reductase (Rattus norvegicus, UniProt Q920D2).
T2 sequence (Q920D2 whole entry): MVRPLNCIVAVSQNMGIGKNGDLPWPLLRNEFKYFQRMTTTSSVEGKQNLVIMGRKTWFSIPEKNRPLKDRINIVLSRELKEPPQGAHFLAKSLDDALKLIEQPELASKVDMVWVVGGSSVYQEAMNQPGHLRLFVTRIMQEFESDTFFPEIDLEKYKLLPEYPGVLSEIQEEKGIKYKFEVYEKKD
Description: Inhibitory activity against rat liver dihydrofolate reductase

Test [5] concerns the target T3, Bifunctional dihydrofolate reductase-thymidylate synthase (Toxoplasma gondii, UniProt Q07422).
T3 sequence (Q07422 whole entry): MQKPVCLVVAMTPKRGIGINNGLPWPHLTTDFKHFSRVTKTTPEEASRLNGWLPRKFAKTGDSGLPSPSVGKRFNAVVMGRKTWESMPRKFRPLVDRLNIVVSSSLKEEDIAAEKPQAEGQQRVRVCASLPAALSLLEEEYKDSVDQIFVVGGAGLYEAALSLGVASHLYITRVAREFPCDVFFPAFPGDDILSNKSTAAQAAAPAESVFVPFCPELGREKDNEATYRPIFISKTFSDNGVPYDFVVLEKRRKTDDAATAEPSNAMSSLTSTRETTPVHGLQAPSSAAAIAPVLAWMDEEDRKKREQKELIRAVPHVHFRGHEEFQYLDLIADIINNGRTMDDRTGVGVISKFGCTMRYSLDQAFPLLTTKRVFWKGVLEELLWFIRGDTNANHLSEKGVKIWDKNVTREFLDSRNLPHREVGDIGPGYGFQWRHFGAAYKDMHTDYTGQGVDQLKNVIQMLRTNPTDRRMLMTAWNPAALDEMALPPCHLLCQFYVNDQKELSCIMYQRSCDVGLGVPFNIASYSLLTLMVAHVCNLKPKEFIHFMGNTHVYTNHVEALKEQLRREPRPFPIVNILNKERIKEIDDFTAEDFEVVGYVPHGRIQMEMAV
Description: Inhibitory activity against Toxoplasma gondii dihydrofolate reductase

A word on the IC50: it is the midpoint of a concentration-inhibition curve. As for `COc1cc(NCc2ccc3nc(N)nc(N)c3c2C)cc(OC)c1OC` [TRIMETREXATE], in test [1], the half-maximal inhibitory concentration (IC50) is 20 nM.
As for `CCOc1ccc(OCC)c(NCc2cnc3nc(N)nc(N)c3c2C)c1`, the concentration for half-maximal inhibition (IC50) in test [2] was found to be 60 nM; in test [3], 125 nM; in test [4] it was 370 nM; in test [5], 22 nM.
In the same order, the values of `Nc1nc(N)c2nc(CNc3ccc(Cl)cc3)cnc2n1` are 700 nM, 1500 nM, 300 nM and 590 nM.
For `Cc1cccc(SCc2cnc3nc(N)nc(N)c3c2C)c1`, in that order: 200 nM, 170 nM, 330 nM and 65 nM.
Regarding `COc1ccc(SCc2cnc3nc(N)nc(N)c3c2C)cc1OC`, the IC50 in test [2] amounted to 5000 nM; in test [3], 150 nM; in test [4], 180 nM; in test [5], 30 nM.
`COc1ccc(C(F)(F)F)cc1N(C)Cc1cnc2nc(N)nc(N)c2c1C`: the IC50 in test [2] worked out at 200 nM; in test [3], 93 nM; in test [4], 230 nM; in test [5], 38 nM.
For `COc1ccc(N(C)Cc2cnc3nc(N)nc(N)c3c2C)c(OC)c1`, in that order: 300 nM, 350 nM, 230 nM and 53 nM.
For `COc1ccc(OC)c(CCc2cnc3nc(N)nc(N)c3c2C)c1`, in that order: 100 nM, 340 nM, 770 nM and 7.9 nM.
Consider `COc1ccc(NCc2cnc3nc(N)nc(N)c3c2C)c(C)c1`, for which the half-inhibitory concentration (IC50) came out at 600 nM in test [2], 170 nM in test [3], 29 nM in test [4] and 7.2 nM in test [5].
In the same order, the values of `Cc1c(CSc2cccc3ccccc23)cnc2nc(N)nc(N)c12` are 40 nM, 290 nM, 550 nM and 30 nM.
For `Nc1nc(N)c2cc(CNc3ccc(Cl)cc3)cnc2n1`, in that order: 4000 nM, 970 nM, 720 nM and 300 nM.
For `COc1ccc(OC)c(NCc2cnc3nc(N)nc(N)c3c2C)c1`, in that order: 200 nM, 11 nM, 10 nM and 14 nM.
In the case of `COc1cc(NCc2cnc3nc(N)nc(N)c3n2)cc(C(F)(F)F)c1`, the half-inhibitory concentration (IC50) in test [2] turned out to be 1000 nM; in test [3], 680 nM; in test [4], 1900 nM; in test [5], 890 nM.
For `Cc1c(CSc2ccc(Cl)cc2)cnc2nc(N)nc(N)c12`, the concentration for half-maximal inhibition (IC50) in test [2] worked out at 300 nM; in test [3] it was 360 nM; in test [4], 370 nM; in test [5] it was 90 nM.
For `COc1cccc(SCc2cnc3nc(N)nc(N)c3c2C)c1`, in that order: 200 nM, 340 nM, 600 nM and 110 nM.
In the same order, the values of `Cc1c(CCc2cccc3ccccc23)cnc2nc(N)nc(N)c12` are 100 nM, 64 nM, 135 nM and 26 nM.
Consider `COc1ccc(NCc2cnc3nc(N)nc(N)c3c2C)c(OC)c1`, for which the IC50 in test [2] is 200 nM; in test [3], 91 nM; in test [4], 61 nM; in test [5], 10 nM.
For `COc1cccc(SCc2cnc3nc(N)nc(N)c3n2)c1`, in that order: 5000 nM, 9900 nM, 7700 nM and 1600 nM.
For `COc1ccc(C(F)(F)F)cc1NCc1cnc2nc(N)nc(N)c2c1C`, in that order: 20 nM, 44 nM, 20 nM and 22 nM.
As to `COc1cccc(C)c1NCc1cnc2nc(N)nc(N)c2n1`, the IC50 in test [2] stood at 5000 nM; in test [3], 15800 nM; in test [4], 5700 nM; in test [5], 1850 nM.
For `COc1ccc(C)c(NCc2cnc3nc(N)nc(N)c3n2)c1`, in that order: 1000 nM, greater than 3000 nM, greater than 3000 nM and 440 nM.
